Here are results for five compounds from patent US20260152490A1, “METHYLLACTAM RING COMPOUND AND PHARMACEUTICAL USE THEREOF” (Japan Tobacco Inc., priority 2018, published 2026).

The subject of data set [1] is Escherichia coli WP2uvrA. Nature of the data set: Ames test (reverse mutation test), WP2uvrA. The format is cell-based. Conditions: without S9 mix, 0.01 μg/plate, positive control. The source says:
(§1) Metabolite 1 and Metabolite C were each tested herein.
(§2) Two plates per treatment were used.
(In general: In the Ames test, an excess of revertant colonies over the control signals mutagenicity.)

The subject of data set [2] is glucose-loaded SD rats. As to the kind of experiment: OGTT (Oral Glucose Tolerance Test), Test Example 2. The conditions noted are these: male SD rat, 1, 3, or 10 mg/kg orally, glucose load after 16 hours, to 120 minutes, compared to vehicle. It counts as in vivo. As for the experimental part: Vehicle (0.5% methylcellulose solution) or Compound 1 (1, 3, or 10 mg/kg) suspended in a 0.5% methylcellulose solution was orally administered in 5 mL/kg to an about 4-hour-fasted male SD rat (8-week old, Nihon Charles River K.K., 6 cases for each group).
Statistical analyses were based on Steel's multiple test. The significance level was two-sided 5%.

In data set [3] the test system is glucose-loaded SD rats. Nature of the data set: OGTT (Oral Glucose Tolerance Test), Test Example 3. Conditions: male SD rat, 3 mg/kg orally, glucose load after 16 hours, to 120 minutes, compared to vehicle. The format is in vivo. On the procedure:
Vehicle (0.5% methylcellulose solution) or Compound 1, Compound A, or Compound B (3 mg/kg each) suspended in a 0.5% methylcellulose solution was orally administered in 5 mL/kg to an about 4-hour-fasted male SD rat (8-week old, Nihon Charles River K.K., 5 cases for each group).
Statistical analyses were based on Dunnett's multiple group test. The significance level was two-sided 5%.

In data set [4] the test system is Salmonella typhimurium TA1535. Nature of the data set: Ames test (reverse mutation test), TA1535. It counts as cell-based. The conditions noted are these: TA1535, with S9 mix, 2.0 μg/plate, positive control.
Description: as §1, §2

The subject of data set [5] is Salmonella typhimurium (TA98, TA1537, TA100, and TA1535) and Escherichia coli (WP2uvrA). As to the kind of experiment: Ames test (reverse mutation test), all tester strains: overall conclusion and precipitation. It counts as cell-based. The arrangement: key to Precipitation: * Growth inhibition; †: Precipitation.
Description: as §1, §2

Data set [6] concerns Salmonella typhimurium TA98. As to the kind of experiment: Ames test (reverse mutation test), TA98. It counts as cell-based. The conditions noted are these: TA98 with S9 mix.
Description: as §1, §2

For data set [7], the system named is Salmonella typhimurium TA100. As to the kind of experiment: Ames test (reverse mutation test), TA100. The format is cell-based. The conditions noted are these: TA100 with S9 mix.
Description: as §1, §2

With `NC(=O)C(=Cc1ccc([N+](=O)[O-])o1)c1ccco1` [AF-2, 2-(2-Furyl)-3-(5-nitro-2-furyl)acrylamide], the “Number of revertant colonies” value in data set [1] (Table 4) came out at 69; in data set [1] (Table 7) it was 74.

Turning to `C[C@H]1C(=O)NC[C@@H]1C(=O)Nc1cc(-c2cc(F)cc(OC(C)(C)C)c2)n(C(F)(F)F)n1` [Compound 1, (3R,4R)—N-(5-(3-(tert-butoxy)-5-fluorophenyl)-1-(trifluoromethyl)-1H-pyrazol-3-yl)-4-methyl-5-oxopyrrolidine-3-carboxamide], the “blood glucose level after the glucose load (Δ AUC, % of Vehicle)” value in data set [2] was “significantly reduced the blood glucose level”. Further, the “blood glucose level after the glucose load (A AUC, % of Vehicle)” value in data set [3] is reported as “significantly reduced the blood glucose level”.

Regarding `Nc1ccc2cc3ccccc3cc2c1` [Compound 2AA, 2-Aminoanthracene], the “Number of revertant colonies” value in data set [4] (Table 2) is reported as 223; in data set [4] (Table 6) it was 250.

Take `CC(C)(C)Oc1cc(F)cc(-c2cc(N)nn2C(F)(F)F)c1` [Metabolite 1]: in data set [5] (any of the bacterial tester strains, presence or absence of S9 mix), the “potential to induce reverse mutations” value is given as “did not have potential to induce reverse mutations”. Besides, the Precipitation entry was “†” in data set [5] (with S9 mix, 556 μg/plate, Table 1 (TA98, TA100)); “†” in data set [5] (with S9 mix, 1667 μg/plate, Table 1 (TA98, TA100)); “†” in data set [5] (with S9 mix, 5000 μg/plate, Table 1 (TA98, TA100)); “†” in data set [5] (with S9 mix, 5000 μg/plate, Table 2 (TA1537, TA1535, WP2uvrA)); “†” in data set [5] (without S9 mix, 5000 μg/plate, Table 4 (all five strains)).

`CC(C)(C)Oc1cccc(-c2cc(N)nn2-c2ccccc2)c1` [Metabolite C]: the “potential to induce reverse mutations” value in data set [6] and in data set [7] was “had potential to induce reverse mutations” in each case. Further, the Precipitation entry in data set [5] (with S9 mix, 556 μg/plate, Table 6 (TA1537, TA1535, WP2uvrA)) is reported as “†”; in data set [5] (with S9 mix, 1667 μg/plate, Table 6 (TA1537, TA1535, WP2uvrA)) it was “†”; in data set [5] (with S9 mix, 5000 μg/plate, Table 6 (TA1537, TA1535, WP2uvrA)), “†”; in data set [5] (without S9 mix, 556 μg/plate, Table 7 (all five strains)) it was “†”; in data set [5] (without S9 mix, 1667 μg/plate, Table 7 (all five strains)) it was “†”; in data set [5] (without S9 mix, 5000 μg/plate, Table 7 (all five strains)), “†”.
